Measured values taken from patent publication US20260198493A1, “HYDRAZIDE COMPOUND AND AGRICULTURAL/HORTICULTURAL FUNGICIDE” (Nippon Soda Co., Ltd., priority 2022, published 2026).

Tests used:
[1] = test system: Botrytis cinerea; format: cell-based; conditions: 120 h, 25 ppm by volume, Vogel medium, 20° C., five days, dark, read-out: growth inhibition ratio
[2] = test system: Venturia inaequalis; test: Control test of apple scab disease (sprayed young apple seedlings); format: in vivo; conditions: 125 ppm by mass spray, 12 to 14 days after inoculation
Procedure: [formula] […] Then, the drug liquid was sprayed onto young apple seedlings cultivated in a nursery pot (variety “Orin”, three-to four-leaf stage), and then air-dried. Thereafter, conidiospores of fungi causing apple scab disease (Venturia inaequalis) were inoculated thereon (treated area). As a control, the conidiospores were inoculated in a similar manner to the above on young apple seedlings unsprayed with the drug liquid (untreated area). They were left still at 20° C. in a moist room with light and dark cycles repeated every 12 hours. 12 Days to 14 days after inoculation, leaves of young apple seedlings were visually observed, and the control value was calculated from the lesion area ratio in accordance with the equation used in the control test of cucumber gray mold.

[3] = test system: Colletotrichum acutatum; test: Fungicidal effect test against fungi causing apple anthracnose; conditions: 96 h, read-out: growth inhibition ratio
[4] = test system: Botrytis cinerea; test: Control test of cucumber gray mold (sprayed young cucumber seedlings); format: in vivo; conditions: 96 h, four days after inoculation; for pest or weed control at 125 ppm: 125 ppm by mass spray; for pest or weed control at 25 ppm: 25 ppm by mass spray
Procedure: Then, the drug liquid was sprayed onto young cucumber seedlings cultivated in a nursery pot (variety “Jihai”-based, cotyledon stage), and then air-dried. […] They were left still in a moist room at 20° C. Four days after inoculation, leaves of the young cucumber seedlings were visually observed, and the control value was calculated from the lesion area ratio in accordance with the following equation. [formula]

[5] = test system: Glomerella cingulata; test: Fungicidal effect test against fungi causing grape ripe rot disease; conditions: Colletotrichum gloeosporioides, 72 h, read-out: growth inhibition ratio
[6] = test system: Erysiphe graminis f.sp.tritici; test: Control test of wheat powdery mildew disease (sprayed young wheat seedlings); format: in vivo; conditions: Blumeria graminis, 144 h, 125 ppm by mass spray, six days after inoculation
Excerpt: [formula] […] Then, the drug liquid was sprayed onto young wheat seedlings cultivated in a nursery pot (variety “Chihoku”, one-to two-leaf stage), and then air-dried. Thereafter, conidiospores of fungi causing wheat powdery mildew disease (Erysiphe graminis f.sp.tritici) were sprinkled on the young wheat seedlings to inoculate them (treated area). As a control, the conidiospores of fungi causing wheat powdery mildew disease (Erysiphe graminis f.sp.tritici) were sprinkled on young wheat seedlings unsprayed with the drug liquid (untreated area). They were left still in a greenhouse at 20° C. Six days after inoculation, leaves of young wheat seedlings were visually observed, and the lesion area ratio was determined to calculate the control value in a similar manner to the previous test.

COC(=O)N(Cc1ccc(C)cc1C)NC(=O)c1cc(C)nnc1Oc1cccc(Cl)c1Br [b-35]
≥ 75%: inhibition of growth at 25 ppm [1] | pest or weed control at 125 ppm [2]

COC(=O)N(Cc1ccc(C)cc1C)NC(=O)c1cc(Cl)nnc1Oc1ccc2c(c1)CCC2 [b-79]
≥ 75%: inhibition of growth at 25 ppm [1] | inhibition of growth at 25 ppm [3] | pest or weed control at 125 ppm [4] | inhibition of growth at 25 ppm [5] | pest or weed control at 125 ppm [2]

CC(=O)C(=O)N(Cc1ccc(C)cc1C)NC(=O)c1cc(C)nnc1Oc1cccc(C2CC2)c1F [b-58, 3-(3-Cyclopropyl-2-fluorophenoxy)-N′-(2,4-dimethylbenzyl)-6-methyl-N′-(2-oxopropanoyl)pyridazine-4-carbohydrazide]
≥ 75%: inhibition of growth at 25 ppm [1] | inhibition of growth at 25 ppm [3] | pest or weed control at 125 ppm [4] | inhibition of growth at 25 ppm [5] | pest or weed control at 125 ppm [6]

COC(=O)N(Cc1ccc2ccccc2c1)NC(=O)c1cc(C)nnc1Oc1cccc(C2CC2)c1F [b-71]
≥ 75%: inhibition of growth at 25 ppm [1] | inhibition of growth at 25 ppm [3] | inhibition of growth at 25 ppm [5] | pest or weed control at 125 ppm [2]

CCc1cccc(Oc2nnc(C)cc2C(=O)NN(Cc2ccc(C)cc2C)C(=O)OC)c1 [b-50]
≥ 75%: inhibition of growth at 25 ppm [1] | inhibition of growth at 25 ppm [3] | pest or weed control at 125 ppm [4] | inhibition of growth at 25 ppm [5] | pest or weed control at 125 ppm [6]

CSC(=S)N(Cc1ccc(C)cc1C)NC(=O)c1cc(C)nnc1Oc1cccc(C2CC2)c1F [b-174]
≥ 75%: inhibition of growth at 25 ppm [3] | inhibition of growth at 25 ppm [5] | pest or weed control at 125 ppm [2]

COC(=O)N(Cc1ccc(-c2ccc(F)cc2)cc1)NC(=O)c1cc(C)nnc1Oc1cccc(C2CC2)c1F [b-164]
≥ 75%: inhibition of growth at 25 ppm [1] | inhibition of growth at 25 ppm [3] | inhibition of growth at 25 ppm [5] | pest or weed control at 125 ppm [2]

CC(=O)N(Cc1ccc(Cl)cc1Cl)NC(=O)c1cc(C)nnc1Oc1cccc(C2CC2)c1F [b-13]
≥ 75%: inhibition of growth at 25 ppm [1] | inhibition of growth at 25 ppm [3] | pest or weed control at 125 ppm [4] | inhibition of growth at 25 ppm [5] | pest or weed control at 125 ppm [6]

COC(=O)N(Cc1ccc(C)cc1C)NC(=O)c1cc(C)nnc1Oc1ccc(C)c(Br)c1 [b-62]
≥ 75%: inhibition of growth at 25 ppm [1] | inhibition of growth at 25 ppm [3] | inhibition of growth at 25 ppm [5] | pest or weed control at 125 ppm [6]

COC(=O)N(Cc1ccc(-n2cccn2)cc1)NC(=O)c1cc(C)nnc1Oc1cccc(C2CC2)c1F [b-172]
≥ 75%: inhibition of growth at 25 ppm [1] | inhibition of growth at 25 ppm [3] | inhibition of growth at 25 ppm [5] | pest or weed control at 125 ppm [2]

Cc1ccc(CN(NC(=O)c2cc(C)nnc2Oc2cccc(C3CC3)c2F)C(=O)C2COC2)c(C)c1 [b-40]
≥ 75%: inhibition of growth at 25 ppm [1] | inhibition of growth at 25 ppm [3] | inhibition of growth at 25 ppm [5] | pest or weed control at 125 ppm [6]

COC(=O)N(Cc1ccc2ncsc2c1)NC(=O)c1cc(C)nnc1Oc1cccc(C2CC2)c1F [b-173]
≥ 75%: inhibition of growth at 25 ppm [3] | inhibition of growth at 25 ppm [5] | pest or weed control at 125 ppm [2]

COC(=O)N(Cc1ccc(Oc2ccccc2)cc1)NC(=O)c1cc(C)nnc1Oc1cccc(C2CC2)c1F [b-165]
≥ 75%: inhibition of growth at 25 ppm [1] | inhibition of growth at 25 ppm [3] | inhibition of growth at 25 ppm [5] | pest or weed control at 125 ppm [2]

CCc1ccc(Oc2nnc(C)cc2C(=O)NN(Cc2ccc(C)cc2C)C(=O)OC)cc1 [b-51]
≥ 75%: inhibition of growth at 25 ppm [1] | inhibition of growth at 25 ppm [3] | inhibition of growth at 25 ppm [5] | pest or weed control at 125 ppm [6]

COC(=O)N(Cc1sc(C)cc1C)NC(=O)c1cc(C)nnc1Oc1cccc(C2CC2)c1F [b-122, Methyl 2-(3-(3-cyclopropyl-2-fluorophenoxy)-6-methylpyridazine-4-carbonyl)-1-((3,5-dimethylthiophen-2-yl)methyl)hydrazine-1-carboxylate]
≥ 75%: inhibition of growth at 25 ppm [1] | inhibition of growth at 25 ppm [3] | pest or weed control at 125 ppm [4] | inhibition of growth at 25 ppm [5]

CC(=O)N(Cc1ccc(C)cc1C)NC(=O)c1nc(C)ncc1Oc1cccc(C2CC2)c1F [b-64]
≥ 75%: inhibition of growth at 25 ppm [1] | inhibition of growth at 25 ppm [3] | pest or weed control at 125 ppm [4] | inhibition of growth at 25 ppm [5]

COC(=O)N(Cc1ccc(C)cc1C)NC(=O)c1cc(-n2cccn2)ncc1Oc1cccc(C2CC2)c1F [b-186]
≥ 75%: inhibition of growth at 25 ppm [1] | inhibition of growth at 25 ppm [3] | pest or weed control at 25 ppm [4] | pest or weed control at 125 ppm [4] | inhibition of growth at 25 ppm [5] | pest or weed control at 125 ppm [2]

COC(=O)N(Cc1ccc(C)cc1C)NC(=O)c1cc(C)nnc1Oc1cccc(C#N)c1F [b-69]
≥ 75%: inhibition of growth at 25 ppm [1] | inhibition of growth at 25 ppm [3] | inhibition of growth at 25 ppm [5] | pest or weed control at 125 ppm [6]

COC(=O)N(Cc1ccc(OC)cc1C)NC(=O)c1nc(C)nnc1Oc1cccc(C2CC2)c1F [b-130]
≥ 75%: inhibition of growth at 25 ppm [1] | inhibition of growth at 25 ppm [3] | pest or weed control at 25 ppm [4] | pest or weed control at 125 ppm [4] | inhibition of growth at 25 ppm [5]

COC(=O)N(Cc1ccc([N+](=O)[O-])cc1C)NC(=O)c1cc(C)nnc1Oc1cccc(C2CC2)c1F [b-162]
≥ 75%: inhibition of growth at 25 ppm [1] | inhibition of growth at 25 ppm [3] | inhibition of growth at 25 ppm [5] | pest or weed control at 125 ppm [6]

COC(=O)N(Cc1ccc(Cl)nc1Cl)NC(=O)c1cc(C)nnc1Oc1cccc(C2CC2)c1F [b-93, Methyl 2-(3-(3-cyclopropyl-2-fluorophenoxy)-6-methylpyridazine-4-carbonyl)-1-((2,6-dichloropyridin-3-yl)methyl)hydrazine-1-carboxylate]
≥ 75%: inhibition of growth at 25 ppm [1] | inhibition of growth at 25 ppm [3] | inhibition of growth at 25 ppm [5] | pest or weed control at 125 ppm [6]

CC(=O)N(Cc1ccc(C)cc1C)NC(=O)c1c(Oc2cccc(C3CC3)c2F)nnc(Cl)c1C [b-10]
≥ 75%: inhibition of growth at 25 ppm [1] | inhibition of growth at 25 ppm [3] | pest or weed control at 125 ppm [4] | inhibition of growth at 25 ppm [5]

COC(=O)N(Cc1ccc(C)cc1C)NC(=O)c1cc(C)nnc1Oc1cc(C)cc(F)c1 [b-144]
≥ 75%: inhibition of growth at 25 ppm [1] | inhibition of growth at 25 ppm [3] | inhibition of growth at 25 ppm [5] | pest or weed control at 125 ppm [2]

COC(=O)N(NC(=O)c1cc(C)nnc1Oc1cccc(C2CC2)c1F)C(C)c1ccc(C)cc1C (stereo not shown) [b-72]
≥ 75%: inhibition of growth at 25 ppm [1] | inhibition of growth at 25 ppm [3] | pest or weed control at 25 ppm [4] | inhibition of growth at 25 ppm [5]

COC(=O)N(Cc1ccc(C)cc1C)NC(=O)c1nc(C)nnc1Oc1cccc(C2CC2)c1F [b-115]
≥ 75%: inhibition of growth at 25 ppm [1] | inhibition of growth at 25 ppm [3] | pest or weed control at 25 ppm [4] | inhibition of growth at 25 ppm [5]

Cc1ccc(CN(NC(=O)c2cc(C)nnc2Oc2cccc(C3CC3)c2F)C(=O)OCC(F)F)c(C)c1 [b-197]
≥ 75%: inhibition of growth at 25 ppm [1] | inhibition of growth at 25 ppm [3] | pest or weed control at 25 ppm [4] | pest or weed control at 125 ppm [4] | inhibition of growth at 25 ppm [5]

COC(=O)N(Cc1ccc(C)nc1C)NC(=O)c1cc(C)nnc1Oc1cccc(C2CC2)c1F [b-60]
≥ 75%: inhibition of growth at 25 ppm [3] | inhibition of growth at 25 ppm [5] | pest or weed control at 125 ppm [6]

Cc1ccc(CN(NC(=O)c2cc(C)nnc2Oc2cccc(C3CC3)c2F)S(C)(=O)=O)c(C)c1 [b-26, N′-(3-(3-cyclopropyl-2-fluorophenoxy)-6-methylpyridazine-4-carbonyl)-N-(2,4-dimethylbenzyl)methanesulfonohydrazide]
≥ 75%: inhibition of growth at 25 ppm [1] | inhibition of growth at 25 ppm [3] | inhibition of growth at 25 ppm [5] | pest or weed control at 125 ppm [2]

COC(=O)N(Cc1ccc(C)cc1C)NC(=O)c1c(Oc2cccc(C3CC3)c2)cnn(C(C)C)c1=O [b-224]
≥ 75%: inhibition of growth at 25 ppm [1] | inhibition of growth at 25 ppm [3] | pest or weed control at 125 ppm [4] | inhibition of growth at 25 ppm [5]

COC(=O)N(Cc1ccc(OC)cc1C)NC(=O)c1nc(C)ncc1Oc1cccc(C2CC2)c1F [b-105]
≥ 75%: inhibition of growth at 25 ppm [1] | inhibition of growth at 25 ppm [3] | pest or weed control at 25 ppm [4] | inhibition of growth at 25 ppm [5]

COC(=O)N(Cc1ccc(C)cc1C)NC(=O)c1cc(N(C)C)ncc1Oc1cccc(C2CC2)c1F [b-125]
≥ 75%: inhibition of growth at 25 ppm [1] | inhibition of growth at 25 ppm [3] | inhibition of growth at 25 ppm [5] | pest or weed control at 125 ppm [6]
